According to US11384071B2, “Inhibitors of mechanotransduction to treat pain and modulate touch perception” (Max-Delbrück-Centrum für Molekulare Medizin in der …, priority 2016, dated 2022):

Legend:
Assay type in all cases: cell-based
[1] = biological target: T1, human STOML3 (Homo sapiens, UniProt Q8TAV4); assay: BiFC assay of human STOML3 self-association
T1 construct: expressed in transfected cells; host or cells: HEK293 (general statement on the BiFC assay)
Source text: (§1) In mammals STOML3 belongs to a family of five structurally conserved membrane proteins, including stomatin, STOML1, STOML2, and podocin^10,12-16, all of which self-associate via their stomatin-domain (FIG. 8a)^10. Self-association of stomatin-domain proteins can be monitored in HEK293 cells using Bimolecular Fluorescence Complementation (BiFC) whereby N- and C-terminal halves of the YFP molecule are tagged to the prey and bait protein STOML3^2,17 (FIG. 1a). Irreversible association of the YFP fragments produces fluorescence that increases linearly over time (FIG. 1b).

[2] = biological target: T2, STOML2 (Mus musculus, UniProt Q99JB2); assay: BiFC assay of STOML2 self-association
T2 construct: expressed in transfected cells; host or cells: HEK293 (general statement on the BiFC assay)
T2 sequence (Q99JB2 29-353): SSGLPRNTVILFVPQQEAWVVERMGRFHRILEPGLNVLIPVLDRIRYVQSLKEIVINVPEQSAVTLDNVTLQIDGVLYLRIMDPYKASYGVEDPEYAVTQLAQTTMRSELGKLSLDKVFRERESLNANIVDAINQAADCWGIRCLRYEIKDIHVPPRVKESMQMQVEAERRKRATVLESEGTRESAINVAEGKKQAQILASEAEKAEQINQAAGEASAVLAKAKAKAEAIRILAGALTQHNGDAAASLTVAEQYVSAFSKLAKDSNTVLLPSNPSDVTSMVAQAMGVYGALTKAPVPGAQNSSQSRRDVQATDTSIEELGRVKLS
Protocol: FIG. 8: Effects of STOML3 modulating molecules on other Stomatin-domain proteins. (a) BiFC signal development observed when cells were transfected with Stomatin-VC/-VN, STOML1-VC/-VN, STOML2-VC/-VN, STOML3-VC/-VN or Podocin-VC/-VN expression constructs respectively. […] (b) OB-1 was tested at two different concentrations (2 μm and 20 μm) using the BiFC assay where wild type STOML3 was used as both bait and prey.
as §1

[3] = biological target: T3, STOML3-FLAG (Mus musculus, UniProt Q6PE84); assay: dSTORM imaging of STOML3-FLAG cluster size at the plasma membrane of N2A cells; settings: pre-incubation three hours, 20 μM, vs vehicle
T3 construct: expressed in transfected cells; host or cells: N2A (Neuro2A)
T3 sequence (Q6PE84 whole entry): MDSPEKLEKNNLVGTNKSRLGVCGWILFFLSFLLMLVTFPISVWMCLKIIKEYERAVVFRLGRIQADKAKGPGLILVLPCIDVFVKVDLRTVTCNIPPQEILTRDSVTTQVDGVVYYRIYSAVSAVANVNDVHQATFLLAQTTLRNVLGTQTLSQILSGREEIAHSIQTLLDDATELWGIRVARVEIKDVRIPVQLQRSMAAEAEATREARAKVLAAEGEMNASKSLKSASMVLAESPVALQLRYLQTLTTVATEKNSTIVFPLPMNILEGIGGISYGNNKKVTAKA
Protocol: N2A cells were cultured on EHS-Laminin coated precision coverglass, thickness 0.17, then transfected with a plasmid encoding STOML3-FLAG. After overnight incubation, cells were treated for 3 hours with 20 μM compound, or DMSO as a control. Cells were then fixed (15 min, 4% PFA), permeabilized (0.05% TritonX 100, 5 min) and blocked (phosphate buffered saline (PBS) containing 10% fetal goat serum (FGS), 37° C., 1 hr). Cell were labeled with mouse anti-FLAG antibody (M2 clone, 1:100 in PBS containing 10% FGS). The secondary antibody was an Alexa647-conjugated, goat anti-mouse antibody (1:100 in PBS plus 10% FGS, 1 h, 37° C.). After staining, the samples were fixed again. […]
For analysis of STOML3 domain size, all reconstructed images were blinded and then from each imaged cell 100 individual dots were cropped (size: 20×20 pixels). A 2D-Gaussian fit was calculated using the Igor software (WaveMetrics, USA). […] After domain sizes had been determined for each cell, images were unblinded and then normalized against the average domain size for control cells prepared and imaged on the same day.
We next determined whether OB-1 and OB-2 modulation of STOML3 oligomerization state influences clustering of the protein in the plasma membrane. […]

T1 sequence (Q8TAV4 whole entry): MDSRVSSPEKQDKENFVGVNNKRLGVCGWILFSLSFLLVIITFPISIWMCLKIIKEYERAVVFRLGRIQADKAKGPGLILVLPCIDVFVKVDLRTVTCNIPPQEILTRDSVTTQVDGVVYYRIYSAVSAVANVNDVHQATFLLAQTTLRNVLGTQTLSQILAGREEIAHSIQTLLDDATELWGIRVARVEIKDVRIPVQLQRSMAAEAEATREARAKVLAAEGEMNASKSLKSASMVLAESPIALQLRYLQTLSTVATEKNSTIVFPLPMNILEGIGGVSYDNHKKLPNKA

self-association of the human STOML3 protein (BiFC) [1] | self-association of STOML2 (BiFC) [2] | STOML3-FLAG cluster size [3] | SMILES
inhibited | effective inhibitor | significantly reduced | CCOC(=O)c1c(-c2ccccc2)oc2ccc(Oc3c([N+](=O)[O-])ncn3C)cc12 [OB-1, Ethyl 5-((1-methyl-4-nitro-1H-imidazol-5-yl)oxy)-2-phenylbenzofuran-3-carboxylate]
 |  | significantly reduced | Cc1ccnc(NC(=O)CSc2nnc3c4ccccc4n(Cc4ccccc4)c3n2)c1 [OB-2]
